Experimental findings from PubChem BioAssay (NCI) are described below.

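Dose response: 5 concentrations. Exposure: 48 h. Format: 96-well plates. Endpoint: linear interpolation; highest concentration if not reached. Abbreviation: GI50, concentration required for 50% inhibition of growth. Definition used: TGI = concentration required for complete inhibition of growth.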

Assay in all cases: inhibition of tumour cell growth, NCI panel, 48 h
Assay [1] deals with HT29 colon.
For assay [2], the system named is KM12 colon.
Assay [3] concerns MCF7 breast.
In assay [4] the test system is MOLT-4 leukemia.
The test system of assay [5] is NCI/ADR-RES ovarian.
Assay [6] has as its system OVCAR-4 ovarian.
Assay [7] concerns RPMI-8226 leukemia.
Assay [8] deals with SF-295 CNS.
The subject of assay [9] is SK-MEL-5 melanoma.
The subject of assay [10] is SNB-75 CNS.

For the molecule `Cc1ccc(C(SCC(N)C(=O)O)(c2ccccc2)c2ccccc2)cc1` (stereo not given), the GI50 in assay [1] was 0.365 µM; in assay [2], 0.0983 µM; in assay [3] it was 0.0324 µM; in [4], 0.244 µM; in [5], 1.03 µM; in assay [6] it was 22.8 µM. For the same molecule, the GI50 in assay [7] is 0.0385 µM; in assay [8], 0.0465 µM; in assay [9] it was 0.0452 µM; in assay [10], 0.128 µM. Also, the TGI in assay [1] is > 100 µM; in assay [2] it was 5.98 µM; in assay [3], > 79.1 µM; in assay [4] it was > 100 µM; in assay [5], 6.03 µM; in assay [6], > 100 µM. For the same molecule, the TGI was > 100 µM in assay [7], > 100 µM in assay [8], 19.6 µM in [9] and 58.3 µM in assay [10].
With `CN1CCN(Cc2ccc(NC(=O)c3cncc(C#Cc4cncc5nccnc45)c3)cc2C(F)(F)F)CC1`, the GI50 in assay [1] was 0.914 µM; in assay [2], 0.136 µM; in assay [3] it was 2.35 µM; in [4], 1.89 µM; in assay [5], 6.68 µM; in assay [6], 1.04 µM. The GI50 in assay [7] is 1.86 µM; in assay [8] it was 7.05 µM; in [9] it was 2.61 µM; in assay [10], 5.04 µM. The TGI in assay [1] turned out to be 7.87 µM; in [2] it was 6.88 µM; in assay [3], 10.1 µM; in [4] it was 13.2 µM; in [5], 25.1 µM; in assay [6] it was 12 µM. Besides, the TGI in assay [7] came to 10.6 µM; in [8] it was 14.4 µM; in [9], 8.63 µM; in [10], 11.5 µM.
For the molecule `c1cncc(C2Nc3cccc4cccc(c34)N2)c1`, the GI50 is 31.8 µM in assay [1]; 30.8 µM in assay [2]; 18.7 µM in assay [3]; 42.5 µM in assay [4]; 33.8 µM in [5]; 13.8 µM in assay [6]. Further, the GI50 in [7] is 33.9 µM; in assay [8], 49.7 µM; in assay [9], 66.3 µM; in [10], 17.9 µM. Further, the TGI is > 100 µM in [1]; 97.7 µM in assay [2]; 60.6 µM in assay [3]; > 100 µM in [4]; > 100 µM in assay [5]; 27.3 µM in assay [6]. Besides, the TGI in assay [7], in [8], in [9] and in assay [10] was > 100 µM each time.
For `CCOC(=O)c1c(C)nc2c(c1N)CC(=O)N2CCc1ccccc1`, the GI50 in assay [1] is 0.327 µM; in assay [2] it was 0.35 µM; in assay [3] it was 0.306 µM; in [4], 0.822 µM; in [5], 2.05 µM; in [6], 1.48 µM. Also, the GI50 in assay [7] was 0.345 µM; in assay [8], 2.16 µM; in assay [9], 0.939 µM; in assay [10], 1.37 µM. Also, the TGI turned out to be 14.5 µM in [1]; 15.5 µM in assay [2]; 17.1 µM in assay [3]; 21.4 µM in [4]; 27.2 µM in assay [5]; 3.26 µM in [6]. Besides, the TGI in assay [7] stood at 5.6 µM; in assay [8] it was 33.1 µM; in assay [9], 13.6 µM; in assay [10], 18.1 µM.
`Cc1ccc(C2=C(c3ccc(C)cc3)C3(c4ccc(C)cc4)C4C(=O)c5ccccc5C(=O)C4C2(c2ccc(C)cc2)S3=O)cc1` (stereo not given): the GI50 in assay [1] was > 100 µM; in [2], > 100 µM; in assay [3] it was > 100 µM; in [4] it was > 100 µM; in assay [5] it was > 100 µM; in assay [6], 45 µM. Also, the GI50 in assay [7] is > 100 µM; in assay [8] it was > 100 µM; in [9], > 100 µM; in assay [10], 9.93 µM. Moreover, the TGI in [1], in [2], in [3], in assay [4], in assay [5] and in [6] was > 100 µM in each case. For the same molecule, the TGI in assay [7] was > 100 µM; in assay [8], > 100 µM; in assay [9], > 100 µM; in [10], 31 µM.
Turning to `O=C(O)CCc1c2ccc(=O)c(O)c-2oc2c(O)c(O)ccc12`, the TGI in assay [1] is > 100 µM; in [2], > 100 µM; in assay [3], 29.3 µM; in assay [4] it was 65.7 µM; in assay [5], > 100 µM; in [6] it was > 100 µM. Also, the TGI was 75.3 µM in assay [7], 82.5 µM in assay [8], > 100 µM in assay [9] and > 100 µM in assay [10].
Consider `CCc1cc2ncc(CN3CCN(c4ccc(C(=O)NC)nc4)CC3)cc2[nH]c1=O`, for which the GI50 in [1] is 48.2 µM; in [2], > 100 µM; in assay [3] it was 29.4 µM; in assay [4] it was 46 µM; in assay [5] it was > 100 µM; in assay [6] it was 41.3 µM. Also, the GI50 was 40.4 µM in assay [7], 56.7 µM in [8], 30.4 µM in [9] and 18 µM in assay [10]. For the same molecule, the TGI in assay [1], in assay [2], in assay [3], in assay [4], in assay [5] and in [6] was > 100 µM throughout. In addition, the TGI in assay [7], in assay [8], in assay [9] and in [10] was > 100 µM in each case.
Turning to `Cc1ccn2c(CCc3nnc4cc(C)ccn34)nnc2c1`, the TGI in assay [1], in assay [2], in assay [3], in assay [4], in [5] and in assay [6] was > 100 µM throughout. In addition, the TGI in [7], in [8], in [9] and in [10] was > 100 µM in each case.
On to `CN1CCN(c2nc(NCCCNc3ccnc4cc(Cl)ccc34)c3ccccc3n2)CC1`, for which the GI50 in [1] was 3.33 µM; in assay [2], 4.02 µM; in assay [3], 2.37 µM; in [4], 3.25 µM; in assay [5], 22 µM; in [6], 2.69 µM. Moreover, the GI50 is 1.8 µM in assay [7], 2.05 µM in [8], 1.78 µM in assay [9] and 5.45 µM in [10]. The TGI is 9.87 µM in [1]; 16.1 µM in assay [2]; 13.2 µM in assay [3]; 15.2 µM in assay [4]; 59.1 µM in assay [5]; 12.5 µM in assay [6]. Also, the TGI amounted to 7.69 µM in [7], 4.92 µM in assay [8], 3.18 µM in assay [9] and 20.7 µM in assay [10].
As to `Oc1cccc(/C=N/Nc2nnc(N/N=C/c3cccc(O)c3)c3ccccc23)c1`, the TGI in [1] was > 100 µM; in assay [2], > 100 µM; in assay [3], > 100 µM; in assay [4], 6.43 µM; in assay [5] it was 60.1 µM; in assay [6] it was 82.6 µM. For the same molecule, the TGI in assay [7] stood at 92.2 µM; in assay [8], 31.8 µM; in [9], 8.86 µM; in [10], 50.5 µM.
As for `NC(N)=Nc1nc2ccc([N+](=O)[O-])cc2[nH]1`, the TGI in assay [1], in assay [2], in assay [3], in [4], in assay [5] and in [6] was > 100 µM each time. For the same molecule, the TGI in assay [7], in [8], in assay [9] and in assay [10] was > 100 µM throughout.
